We go through 27 molecules from patent publication US8946266B2, “Substituted triazole and imidazole derivatives as gamma secretase modulators” (Janssen Pharmaceuticals, Inc., priority 2009, dated 2015).

Structures are written as SMILES. Structures can show the parent of a compound that is named as a salt. Where two headings read alike, the source gives them in different places.

Data set [1] deals with Aβ42. As to the kind of experiment: γ-secretase-modulating activity, Method 2: Aβ42 Alphalisa in supernatant of SKNBE2 cells carrying APP 695-wild type (Table 3b). The class given is cell-based. The settings on record: overnight. Summed up: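 SKNBE2 cells expressing wild-type APP695 were incubated overnight at 37° C. with test compound. Secreted Aβ42 was then measured by AlphaLISA, using a C-terminal Aβ42 antibody paired with an N-terminal Aβ antibody. IC50 came from a 4-parameter fit of percent of compound-free control.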

The subject of data set [2] is Aβtotal. As to the kind of experiment: γ-secretase-modulating activity, Method 2: Aβtotal Alphalisa in supernatant of SKNBE2 cells carrying APP 695-wild type (Table 3b). The class given is cell-based. The settings on record: overnight, read-out: IC50 Aβtot. The essentials:
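SKNBE2 cells expressing wild-type APP 695 were incubated overnight at 37 °C, 5% CO2 with test compound at a range of concentrations. Aβtotal in supernatant was measured by AlphaLISA sandwich (N-terminal JRF/AβN/25 acceptor, biotinylated mid-region 4G8 donor); IC50 from 4-parameter fit of percent control versus log concentration.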

For data set [3], the system named is Aβtotal. The experiment in a line: In vivo efficacy, Method 2: brain soluble Aβtotal lowering 4 h after a single oral dose, ELISA (Table 4b). More on the design: species or system mouse. The following applies: dose 30 mg/kg oral dosing. The source says:
(§1) To determine whether acute administration of an Aβ42 lowering agent would reduce Aβ42 levels in vivo, non-transgenic rodents, e.g. mice or rats were used. Animals treated with the Aβ42 lowering agent were examined and compared to those untreated or treated with vehicle and brain levels of soluble Aβ42 and total Aβ were quantitated by standard techniques, for example, using ELISA. Treatment periods varied from hours (h) to days and were adjusted based on the results of the Aβ42 lowering once a time course of onset of effect could be established.
(§2) A typical protocol for measuring Aβ42 lowering in vivo is shown but it is only one of many variations that could be used to optimize the levels of detectable Aβ. For example, Aβ42 lowering compounds were formulated in 20% of Captisol® (a sulfobutyl ether of β-cyclodextrin) in water or 20% hydroxypropyl β cyclodextrin. The Aβ42 lowering agents were administered as a single oral dose or by any acceptable route of administration to overnight fasted animals. After 4 h, the animals were sacrificed and Aβ42 levels were analysed.
(§3) Blood was collected by decapitation and exsanguinations in EDTA-treated collection tubes. Blood was centrifuged at 1900 g for 10 minutes (min) at 4° C. and the plasma recovered and flash frozen for later analysis. The brain was removed from the cranium and hindbrain. The cerebellum was removed and the left and right hemisphere were separated. The left hemisphere was stored at −18° C. for quantitative analysis of test compound levels. The right hemisphere was rinsed with phosphate-buffered saline (PBS) buffer and immediately frozen on dry ice and stored at −80° C. until homogenization for biochemical assays.
(§4) Mouse brains from non-transgenic animals were resuspended in 8 volumes of 0.4% DEA (diethylamine)/50 mM NaCl containing protease inhibitors (Roche-11873580001 or 04693159001) per gram of tissue, e.g. for 0.158 g brain, add 1.264 ml of 0.4% DEA. All samples were homogenized in the FastPrep-24 system (MP Biomedicals) using lysing matrix D (MPBio #6913-100) at 6 m/s for 20 seconds. Homogenates were centrifuged at 221.300×g for 50 min. The resulting high speed supernatants were then transferred to fresh eppendorf tubes. Nine parts of supernatant were neutralized with 1 part 0.5 M Tris-HCl pH 6.8 and used to quantify Aβtotal and Aβ42.
(§5) To quantify the amount of Aβtotal and Aβ42 in the soluble fraction of the brain homogenates, Enzyme-Linked-Immunosorbent-Assays were used. Briefly, the standards (a dilution of synthetic Aβ1-40 and Aβ1-42, Bachem) were prepared in 1.5 ml Eppendorf tube in Ultraculture, with final concentrations ranging from 10000 to 0.3 pg/ml. The samples and standards were co-incubated with HRPO-labelled N-terminal antibody for Aβ42 detection and with the biotinylated mid-domain antibody 4G8 for Aβtotal detection. 50 μl of conjugate/sample or conjugate/standards mixtures were then added to the antibody-coated plate (the capture antibodies selectively recognize the C-terminal end of Aβ42, antibody JRF/cAβ42/26, for Aβ42 detection and the N-terminus of Aβ, antibody JRF/rAβ/2, for Aβtotal detection). The plate was allowed to incubate overnight at 4° C. in order to allow formation of the antibody-amyloid complex. Following this incubation and subsequent wash steps the ELISA for Aβ42 quantification was finished by addition of Quanta Blu fluorogenic peroxidase substrate according to the manufacturer's instructions (Pierce Corp., Rockford, Ill.). A reading was performed after 10 to 15 min (excitation 320/emission 420).
For Aβtotal detection, a Streptavidine-Peroxidase-Conjugate was added, followed 60 min later by an additional wash step and addition of Quanta Blu fluorogenic peroxidase substrate according to the manufacturer's instructions (Pierce Corp., Rockford, Ill.). A reading was performed after 10 to 15 min (excitation 320 nm/emission 420 nm).
(§6) The results are shown in Table 4b (dose 30 mg/kg oral dosing): […]

Data set [4] deals with Aβ42. The experiment in a line: In vivo efficacy, Method 2: brain soluble Aβ42 lowering 4 h after a single oral dose, ELISA (Table 4b). The settings on record: dose 30 mg/kg oral dosing. More on the design: species or system mouse.
Source text: as §1, §2, §3, §4, §5
In this model at least 20% Aβ42 lowering compared to untreated animals would be advantageous.
as §6
(ELISA stands for enzyme-linked immunosorbent assay.)

As usually defined, the melting point is the temperature of the solid-liquid transition. For the molecule `COc1cc(-c2nc(Sc3cccc(C(F)(F)F)c3)n(C)n2)ccc1-n1cnc(C)c1` (as salt: HCl) (hydrate or solvate) [Compound 249], the melting point came to 78.4 °C.
A word on the IC50: it is the midpoint of a concentration-inhibition curve. With `COc1cc(-c2nc(-c3ccccc3Cl)n(C)n2)ccc1-n1cnc(C)c1` [Compound 2], the melting point came out at 149.3 °C. The IC50 in the data set on Aβ42 [1] (Homo sapiens) amounted to 468 nM. Besides, in the data set with Aβtotal [2] (Homo sapiens), the IC50 is over 10000 nM.
Taken in the same sequence, the figures for `COc1cc(-c2nc3n(n2)CCCC3c2ccccc2C(F)(F)F)ccc1-n1cnc(C)c1` (stereo not shown) [Compound 10] were 218 °C, 25 nM and 8320 nM.
The matching figures for `COc1cc(-c2nc3n(n2)CCCN3c2ccccc2C(F)(F)F)ccc1-n1cnc(C)c1` [Compound 18]: 211.6 °C, 76 nM and over 10000 nM.
Taken in the same sequence, the figures for `COc1cc(-c2nc(-c3ccc(-n4cnc(C)c4)c(OC)c3)n[nH]2)ccc1Cl` [Compound 20] were 262.6 °C, 257 nM and over 10000 nM.
`COc1cc(-c2nc(C(=O)c3ccc(F)cc3)n(C)n2)ccc1-n1cnc(C)c1` [Compound 21]: the melting point turned out to be 145.3 °C. The same molecule yielded an IC50 in the data set with Aβ42 [1] (Homo sapiens) of 6920 nM. In addition, the half-inhibitory concentration (IC50) with Aβtotal [2] (Homo sapiens) was over 10000 nM.
Taken in the same sequence, the figures for `COc1cc(-c2nc(-c3ccccc3Cl)n(C(C)C)n2)ccc1-n1cnc(C)c1` [Compound 66] were 159 °C, 562 nM and over 10000 nM.
`COc1cc(-c2nc(-c3cc(F)c(F)c(F)c3)n(C(C)C)n2)ccc1-n1cnc(C)c1` [Compound 84] gave a melting point of 122.23 °C. The same molecule registered an IC50 in the data set with Aβ42 [1] (Homo sapiens) of 316 nM. In addition, the IC50 with Aβtotal [2] (Homo sapiens) is over 10000 nM.
The matching figures for `COc1cc(-c2nc(Nc3ccccc3C)n(C)n2)ccc1-n1cnc(C)c1` [Compound 97]: 159.4 °C, 49 nM and over 10000 nM.
The matching figures for `COc1cc(-c2nc(Nc3ccc(F)cc3C)n(C)n2)ccc1-n1cnc(C)c1` [Compound 130]: 189.7 °C, 60 nM and over 10000 nM.
The molecule `COc1nc(-c2nc(Nc3cc(C(F)(F)F)ccc3F)n(C)n2)ccc1-n1cnc(C)c1` [Compound 154] gave a melting point of 230.1 °C. In the data set with Aβ42 [1] (Homo sapiens), this molecule registered a 50% inhibitory concentration (IC50) of 17 nM. For the same molecule, the 50% inhibitory concentration (IC50) with Aβtotal [2] (Homo sapiens) was over 10000 nM.
The matching figures for `COc1cc(-c2nc(Nc3ccccc3C(F)(F)F)n(C)n2)ccc1-n1cnc(C)c1` [Compound 157]: 159.3 °C, 63 nM and over 15000 nM.
As for `COc1nc(-c2nc3n(n2)CCC[C@H]3c2ccccc2C(F)(F)F)ccc1-n1cnc(C)c1` [Compound 263], the figures for the IC50 in the data set on Aβ42 [1] and in the data set with Aβtotal [2] were 29 nM and over 10000 nM, respectively. Also, the “Aβtotal (% Ctrl) _Mean” value in the data set with Aβtotal [3] is on record as 12 % Ctrl. The “Aβ42 (% Ctrl) _Mean” value in the data set with Aβ42 [4] came to 62 % Ctrl.
The matching figures for `COc1cc(-c2nc3n(n2)CCCC3c2cc(C(F)(F)F)ccc2C)ccc1-n1cnc(C)c1` (stereo not shown) [Compound 264]: 15 nM, over 10000 nM, 8 % Ctrl and 49 % Ctrl.
Taken in the same sequence, the figures for `COc1cc(-c2nc3n(n2)CCCC3c2cc(OC(F)(F)F)ccc2F)ccc1-n1cnc(C)c1` (stereo not shown) [Compound 265] were 19 nM, over 10000 nM, 22 % Ctrl and 55 % Ctrl.
The matching figures for `COc1nc(-c2nc(Nc3cccc(F)c3Cl)n(C)n2)ccc1-n1cnc(C)c1` [Compound 302]: 71 nM, over 10000 nM, −3 % Ctrl and 31 % Ctrl.
`COc1cc(-c2nc(Nc3cc(Br)ccc3F)n(C)n2)ccc1-n1cnc(C)c1` [Compound 303]: the IC50 is 40 nM in the data set on Aβ42 [1] and over 10000 nM with Aβtotal [2]. Further, the “Aβtotal (% Ctrl) _Mean” value with Aβtotal [3] is 23 % Ctrl. Also, the “Aβ42 (% Ctrl) _Mean” value in the data set on Aβ42 [4] was found to be 33 % Ctrl.
Taken in the same sequence, the figures for `COc1cc(-c2nc(Nc3cccc(F)c3C)n(C)n2)ccc1-n1cnc(C)c1` [Compound 304] were 42 nM, over 10000 nM, 11 % Ctrl and 48 % Ctrl.
As to `COc1cc(-c2nc3n(n2)CCOC3c2ccccc2C(F)(F)F)ccc1-n1cnc(C)c1` (stereo not shown) [Compound 306], the IC50 with Aβ42 [1] is 71 nM; in the data set with Aβtotal [2], over 10000 nM. In the data set with Aβtotal [3] (30 mg/kg), the “Aβtotal (% Ctrl) _Mean” value is reported as −2 % Ctrl. The “Aβ42 (% Ctrl) _Mean” value in the data set with Aβ42 [4] (30 mg/kg) amounted to 22 % Ctrl.
Consider `COc1cc(-c2nc(Nc3cc(OC(C)C)ccc3F)n(C)n2)ccc1-n1cnc(C)c1` [Compound 307], for which the IC50 in the data set on Aβ42 [1] is 8 nM; in the data set with Aβtotal [2], over 10000 nM. Further, in the data set on Aβtotal [3], the “Aβtotal (% Ctrl) _Mean” value is −2 % Ctrl. Moreover, the “Aβ42 (% Ctrl) _Mean” value with Aβ42 [4] came to 19 % Ctrl.
Taken in the same sequence, the figures for `COc1cc(-c2nc(Nc3ccccc3OC(F)F)n(C)n2)ccc1-n1cnc(C)c1` [Compound 310] were 44 nM, over 10000 nM, 20 % Ctrl and 45 % Ctrl.
As to `COc1cc(-c2nc3n(n2)CCC[C@H]3c2ccc(F)cc2C)ccc1-n1cnc(C)c1.Cl` [Compound 315], the IC50 in the data set on Aβ42 [1] is 29 nM; in the data set with Aβtotal [2], over 10000 nM. The “Aβtotal (% Ctrl) _Mean” value in the data set with Aβtotal [3] was 10 % Ctrl. Further, the “Aβ42 (% Ctrl) _Mean” value in the data set with Aβ42 [4] is reported as 49 % Ctrl.
Taken in the same sequence, the figures for `COc1c(-n2cnc(C)c2)ccc(-c2nc(Nc3cc(C(F)(F)F)ccc3F)n(C)n2)c1F` [Compound 320] were 45 nM, over 10000 nM, 8 % Ctrl and 23 % Ctrl.
Taken in the same sequence, the figures for `Cc1cn(-c2ccc(-c3nc(Nc4cc(C(F)(F)F)ccc4F)n(C)n3)cc2C#N)cn1` [Compound 322] were 36 nM, over 15000 nM, −4 % Ctrl and −5 % Ctrl.
Taken in the same sequence, the figures for `COc1nc(-c2nc(N(C)c3cc(C(F)(F)F)ccc3F)n(C)n2)ccc1-n1cnc(C)c1` [Compound 337] were 263 nM, over 10000 nM, 3 % Ctrl and 30 % Ctrl.
With `COc1nc(-c2nc3n(n2)CCCC3c2cc(C(F)(F)F)ccc2C)ccc1-n1cnc(C)c1` (stereo not shown) [Compound 343], the figures for the IC50 in the data set on Aβ42 [1] and in the data set on Aβtotal [2] were 15 nM and over 10000 nM, respectively. Besides, in the data set on Aβtotal [3], the “Aβtotal (% Ctrl) _Mean” value came to 18 % Ctrl. Further, the “Aβ42 (% Ctrl) _Mean” value in the data set on Aβ42 [4] is 64 % Ctrl.
The matching figures for `COc1cc(C(F)(F)F)cc(Nc2nc(-c3ccc(-n4cnc(C)c4)c(OC)n3)nn2C)c1F` [Compound 353]: 17 nM, over 10000 nM, 2 % Ctrl and 63 % Ctrl.
